{"source": "paper PMC10359453", "about": "“Mutational and structural analyses of UdgX: insights into the active site pocket architecture and its evolution” (Nucleic Acids Research, 2023)", "assay_in_all_cases": "X-ray crystal structure of complex", "type_in_all_cases": "binding", "key": {"[1]": {"molecular_target": "T1, MsmUdgX (Mycolicibacterium smegmatis, UniProt A0QP43, H109S/R184A)", "T1 construct": "gene MSMEG_0265; N-terminal 6xHis tag (pET14b), expressed in E. coli Rosetta (DE3), Ni-NTA and Superdex-75 purified; 4Fe-4S protein", "T1 sequence (A0QP43 entry or part of it H109S/R184A)": "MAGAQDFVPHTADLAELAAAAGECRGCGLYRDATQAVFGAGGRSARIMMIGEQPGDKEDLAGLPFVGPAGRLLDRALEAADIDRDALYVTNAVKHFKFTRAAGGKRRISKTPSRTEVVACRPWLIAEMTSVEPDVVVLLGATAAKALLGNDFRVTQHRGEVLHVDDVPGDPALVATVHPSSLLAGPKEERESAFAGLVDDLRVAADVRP", "conditions": "uracil excised from 5-mer ssDNA TTUTT, DNA backbone not modelled; active site; pH 7.0"}, "[2]": {"molecular_target": "T2, MsmUdgX (Mycolicibacterium smegmatis, UniProt A0QP43, H109Q)", "T2 construct": "gene MSMEG_0265; N-terminal 6xHis tag (pET14b), expressed in E. coli Rosetta (DE3), Ni-NTA and Superdex-75 purified; 4Fe-4S protein", "T2 sequence (A0QP43 entry or part of it H109Q)": "as the sequence (A0QP43 entry or part of it H109S/R184A) above, with S109Q, A184R counted along it", "conditions": "uracil excised from 5-mer ssDNA TTUTT, DNA backbone not modelled; active site; pH 7.0"}, "[3]": {"molecular_target": "T3, MsmUdgX (Mycolicibacterium smegmatis, UniProt A0QP43)", "T3 construct": "gene MSMEG_0265; N-terminal 6xHis tag (pET14b), expressed in E. coli Rosetta (DE3), Ni-NTA and Superdex-75 purified; 4Fe-4S protein", "T3 sequence (A0QP43 1-209)": "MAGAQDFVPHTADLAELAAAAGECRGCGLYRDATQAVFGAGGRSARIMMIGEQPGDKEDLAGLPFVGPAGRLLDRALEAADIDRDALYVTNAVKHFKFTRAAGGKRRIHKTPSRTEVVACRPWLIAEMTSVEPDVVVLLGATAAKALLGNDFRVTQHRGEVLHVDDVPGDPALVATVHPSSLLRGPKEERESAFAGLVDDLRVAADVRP", "conditions": "uracil excised from 5-mer ssDNA TTUTT; active site; pH 7.0"}, "[4]": {"molecular_target": "T4, MsmUdgX (Mycolicibacterium smegmatis, UniProt A0QP43, H109K)", "T4 construct": "gene MSMEG_0265; N-terminal 6xHis tag (pET14b), expressed in E. coli Rosetta (DE3), Ni-NTA and Superdex-75 purified; 4Fe-4S protein", "T4 sequence (A0QP43 entry or part of it H109K)": "as the sequence (A0QP43 entry or part of it H109S/R184A) above, with S109K, A184R counted along it", "conditions": "uracil excised from 5-mer ssDNA TTUTT, DNA backbone not modelled; active site; pH 7.0"}, "[5]": {"molecular_target": "T5, MsmUdgX (Mycolicibacterium smegmatis, UniProt A0QP43, H109C)", "T5 construct": "gene MSMEG_0265; N-terminal 6xHis tag (pET14b), expressed in E. coli Rosetta (DE3), Ni-NTA and Superdex-75 purified; 4Fe-4S protein", "T5 sequence (A0QP43 entry or part of it H109C)": "as the sequence (A0QP43 entry or part of it H109S/R184A) above, with S109C, A184R counted along it", "conditions": "uracil excised from 5-mer ssDNA TTUTT, DNA backbone not modelled; active site; pH 7.0"}, "[6]": {"molecular_target": "T6, MsmUdgX (Mycolicibacterium smegmatis, UniProt A0QP43, H109A)", "T6 construct": "gene MSMEG_0265; N-terminal 6xHis tag (pET14b), expressed in E. coli Rosetta (DE3), Ni-NTA and Superdex-75 purified; 4Fe-4S protein", "T6 sequence (A0QP43 entry or part of it H109A)": "as the sequence (A0QP43 entry or part of it H109S/R184A) above, with S109A, A184R counted along it", "conditions": "uracil excised from 5-mer ssDNA TTUTT, DNA backbone not modelled; active site; pH 7.0"}, "[7]": {"molecular_target": "T7, MsmUdgX (Mycolicibacterium smegmatis, UniProt A0QP43, H109G)", "T7 construct": "gene MSMEG_0265; N-terminal 6xHis tag (pET14b), expressed in E. coli Rosetta (DE3), Ni-NTA and Superdex-75 purified; 4Fe-4S protein", "T7 sequence (A0QP43 entry or part of it H109G)": "as the sequence (A0QP43 entry or part of it H109S/R184A) above, with S109G, A184R counted along it", "conditions": "uracil excised from 5-mer ssDNA TTUTT, DNA backbone not modelled; active site; pH 7.0"}}}
{"smiles": "O=c1cc[nH]c(=O)[nH]1", "note": "[uracil]", "values": [{"measurement": "X-ray crystal structure of complex", "setting": "[1]", "result": "H109S/R184A (orange, PDB ID: 8IIT)"}, {"measurement": "X-ray crystal structure of complex", "setting": "[2]", "result": "H109Q (green, PDB ID: 8IIP)"}, {"measurement": "X-ray crystal structure of complex", "setting": "[3]", "result": "Uracil bound in the active site of MsmUdgX, post its cleavage from the DNA backbone"}, {"measurement": "X-ray crystal structure of complex", "setting": "[4]", "result": "Crystal structures of H109K (yellow, (PDB ID: 8IIN)"}, {"measurement": "X-ray crystal structure of complex", "setting": "[5]", "result": "H109C (magenta, PDB ID: 8III)"}, {"measurement": "X-ray crystal structure of complex", "setting": "[6]", "result": "H109A (brown, PDB ID: 8IIG), mutants with uracil in the active sites cavity"}, {"measurement": "X-ray crystal structure of complex", "setting": "[7]", "result": "H109G (cyan, PDB ID: 8IIL)"}]}
